Assay results taken from PubChem BioAssay AID1259407 (Chemical Carcinogenesis Research Information System (CCRIS), 2018).
The source made the active and inactive calls. The rule behind the calls is not given here.

Tested on: CCRIS mutagenicity, Ames/micronucleus/aberration tests
Experiment: CCRIS mutagenicity studies

CCC(C)CO (stereo not drawn)
mutagenic call (Test System: CHINESE HAMSTER V-79, Strain/Indicator: V-79 (HPRT)/6-THIOGUANINE, Metabolic Activation: NONE, Method: STANDARD PLATE): inactive; negative | mutagenic call (Test System: CHINESE HAMSTER V-79, Strain/Indicator: V-79 (HPRT)/6-THIOGUANINE, Metabolic Activation: RAT LIVER S-9, Method: STANDARD PLATE): inactive; negative

O=NC1=Cc2nc3ccccn3c2NC1
mutagenic call (Test System: AMES SALMONELLA TYPHIMURIUM, Strain/Indicator: TA98, Metabolic Activation: NONE, Method: STANDARD PLATE): active; positive | mutagenic call (Test System: AMES SALMONELLA TYPHIMURIUM, Strain/Indicator: TA98, Metabolic Activation: RAT, LIVER, CYTOSOL, AROCLOR 1254, Method: STANDARD PLATE): active; positive | mutagenic call (Test System: AMES SALMONELLA TYPHIMURIUM, Strain/Indicator: TA98, Metabolic Activation: RAT, LIVER, MICROSOMES, AROCLOR 1254, Method: STANDARD PLATE): inactive; negative | mutagenic call (Test System: AMES SALMONELLA TYPHIMURIUM, Strain/Indicator: TA98, Metabolic Activation: RAT, LIVER, S-9, AROCLOR 1254, Method: STANDARD PLATE): active; positive

C=C(C)/C([O-])=N/[N+](C)(C)CC(C)O (stereo not drawn)
mutagenic call (Test System: AMES SALMONELLA TYPHIMURIUM, Strain/Indicator: TA97, Metabolic Activation: HAMSTER, LIVER, S-9, AROCLOR 1254 (10 OR 30%), Method: PREINCUBATION): inactive; negative | mutagenic call (Test System: AMES SALMONELLA TYPHIMURIUM, Strain/Indicator: TA97, Metabolic Activation: NONE, Method: PREINCUBATION): inactive; negative | mutagenic call (Test System: AMES SALMONELLA TYPHIMURIUM, Strain/Indicator: TA97, Metabolic Activation: RAT, LIVER, S-9, AROCLOR 1254 (10 OR 30%), Method: PREINCUBATION): inactive; negative | mutagenic call (Test System: AMES SALMONELLA TYPHIMURIUM, Strain/Indicator: TA98, Metabolic Activation: HAMSTER, LIVER, S-9, AROCLOR 1254 (10 OR 30%), Method: PREINCUBATION): inactive; negative | mutagenic call (Test System: AMES SALMONELLA TYPHIMURIUM, Strain/Indicator: TA98, Metabolic Activation: NONE, Method: PREINCUBATION): inactive; negative | mutagenic call (Test System: AMES SALMONELLA TYPHIMURIUM, Strain/Indicator: TA98, Metabolic Activation: RAT, LIVER, S-9, AROCLOR 1254 (10 OR 30%), Method: PREINCUBATION): inactive; negative | mutagenic call (Test System: AMES SALMONELLA TYPHIMURIUM, Strain/Indicator: TA100, Metabolic Activation: HAMSTER, LIVER, S-9, AROCLOR 1254 (10 OR 30%), Method: PREINCUBATION): inactive; negative | mutagenic call (Test System: AMES SALMONELLA TYPHIMURIUM, Strain/Indicator: TA100, Metabolic Activation: NONE, Method: PREINCUBATION): inactive; negative | mutagenic call (Test System: AMES SALMONELLA TYPHIMURIUM, Strain/Indicator: TA100, Metabolic Activation: RAT, LIVER, S-9, AROCLOR 1254 (10 OR 30%), Method: PREINCUBATION): inactive; negative | mutagenic call (Test System: AMES SALMONELLA TYPHIMURIUM, Strain/Indicator: TA1535, Metabolic Activation: HAMSTER, LIVER, S-9, AROCLOR 1254 (10 OR 30%), Method: PREINCUBATION): inactive; negative | mutagenic call (Test System: AMES SALMONELLA TYPHIMURIUM, Strain/Indicator: TA1535, Metabolic Activation: NONE, Method: PREINCUBATION): inactive; negative | mutagenic call (Test System: AMES SALMONELLA TYPHIMURIUM, Strain/Indicator: TA1535, Metabolic Activation: RAT, LIVER, S-9, AROCLOR 1254 (10 OR 30%), Method: PREINCUBATION): inactive; negative
